Tests used:
Format in all cases: functional
SF-295 = test: Growth inhibition of human SF295 cells assessed as cell growth at 10 uM incubated for 48 hrs by sulforhodamine B assay relative to control; details: SF-295, 48 h, read-out: Activity
SW-620 = test: Growth inhibition of human SW620 cells assessed as cell growth at 10 uM incubated for 48 hrs by sulforhodamine B assay relative to control; details: SW-620, 48 h, read-out: Activity
UO-31 = test: Growth inhibition of human UO31 cells assessed as cell growth at 10 uM incubated for 48 hrs by sulforhodamine B assay relative to control; details: UO-31, 48 h, read-out: Activity
NCI-H522 = test: Growth inhibition of human NCI-H522 cells assessed as cell growth at 10 uM incubated for 48 hrs by sulforhodamine B assay relative to control; details: NCI-H522, 48 h, read-out: Activity
UACC-62 [1] = test: Growth inhibition of human UACC62 cells assessed as cell growth at 10 uM incubated for 48 hrs by sulforhodamine B assay relative to control; details: UACC-62, 48 h, read-out: Activity
CCRF-CEM = test: Growth inhibition of human CCRF-CEM cells assessed as cell growth at 10 uM incubated for 48 hrs by sulforhodamine B assay relative to control; details: read-out: Activity
LOX IMVI = test: Growth inhibition of human LOXIMVI cells assessed as cell growth at 10 uM incubated for 48 hrs by sulforhodamine B assay relative to control; details: read-out: Activity
M14 = test: Growth inhibition of human M14 cells assessed as cell growth at 10 uM incubated for 48 hrs by sulforhodamine B assay relative to control; details: M14, 48 h, read-out: Activity
MDA-MB-468 = test: Growth inhibition of human MDA-MB-468 cells assessed as cell growth at 10 uM incubated for 48 hrs by sulforhodamine B assay relative to control; details: MDA-MB-468, 48 h, read-out: Activity
KM12 [2] = test: Growth inhibition of human KM12 cells assessed as cell growth at 10 uM incubated for 48 hrs by sulforhodamine B assay relative to control; details: KM12, 48 h, read-out: Activity
HOP-62 = test: Growth inhibition of human HOP62 cells assessed as cell growth at 10 uM incubated for 48 hrs by sulforhodamine B assay relative to control; details: HOP-62, 48 h, read-out: Activity
PC-3 = test: Growth inhibition of human PC3 cells assessed as cell growth at 10 uM incubated for 48 hrs by sulforhodamine B assay relative to control; details: PC-3, 48 h, read-out: Activity
A498 = test: Growth inhibition of human A498 cells assessed as cell growth at 10 uM incubated for 48 hrs by sulforhodamine B assay relative to control; details: A498, 48 h, read-out: Activity
RPMI-8226 = test: Growth inhibition of human RPMI8226 cells assessed as cell growth at 10 uM incubated for 48 hrs by sulforhodamine B assay relative to control; details: RPMI-8226, 48 h, read-out: Activity
MDA-MB-231 = test: Growth inhibition of human MDA-MB-231 cells assessed as cell growth at 10 uM incubated for 48 hrs by sulforhodamine B assay relative to control; details: MDA-MB-231, 48 h, read-out: Activity
SK-MEL-5 = test: Growth inhibition of human SK-MEL-5 cells assessed as cell growth at 10 uM incubated for 48 hrs by sulforhodamine B assay relative to control; details: SK-MEL-5, 48 h, read-out: Activity
IGROV-1 = test: Growth inhibition of human IGROV1 cells assessed as cell growth at 10 uM incubated for 48 hrs by sulforhodamine B assay relative to control; details: IGROV-1, 48 h, read-out: Activity
K562 = test: Growth inhibition of human K562 cells assessed as cell growth at 10 uM incubated for 48 hrs by sulforhodamine B assay relative to control; details: K562, 48 h, read-out: Activity
Malme-3M = test: Growth inhibition of human MALME-3M cells assessed as cell growth at 10 uM incubated for 48 hrs by sulforhodamine B assay relative to control; details: read-out: Activity
SNB-19 = test: Growth inhibition of human SNB19 cells assessed as cell growth at 10 uM incubated for 48 hrs by sulforhodamine B assay relative to control; details: SNB-19, 48 h, read-out: Activity
ACHN = test: Growth inhibition of human ACHN cells assessed as cell growth at 10 uM incubated for 48 hrs by sulforhodamine B assay relative to control; details: read-out: Activity
EKVX [3] = test: Growth inhibition of human EKVX cells assessed as cell growth at 10 uM incubated for 48 hrs by sulforhodamine B assay relative to control; details: read-out: Activity
NCI-H226 = test: Growth inhibition of human NCI-H226 cells assessed as cell growth at 10 uM incubated for 48 hrs by sulforhodamine B assay relative to control; details: NCI-H226, 48 h, read-out: Activity
RXF 393 [4] = test: Growth inhibition of human RXF393 cells assessed as cell growth at 10 uM incubated for 48 hrs by sulforhodamine B assay relative to control; details: RXF 393, 48 h, read-out: Activity
HT-29 = test: Growth inhibition of human HT-29 cells assessed as cell growth at 10 uM incubated for 48 hrs by sulforhodamine B assay relative to control; details: HT-29, 48 h, read-out: Activity
UACC-62 [5] = test: Growth inhibition of human UACC62 cells incubated for 48 hrs by sulforhodamine B assay; details: UACC-62, 48 h; for CC50: read-out: LC50 (the source's name)
MCF7 = test: Growth inhibition of human MCF7 cells incubated for 48 hrs by sulforhodamine B assay; details: MCF7, 48 h; for CC50: read-out: LC50 (the source's name)
NCI-H322M = test: Growth inhibition of human NCI-H322M cells incubated for 48 hrs by sulforhodamine B assay; details: for CC50: read-out: LC50 (the source's name)
RXF 393 [6] = test: Growth inhibition of human RXF393 cells incubated for 48 hrs by sulforhodamine B assay; details: RXF 393, 48 h; for CC50: read-out: LC50 (the source's name)
KM12 [7] = test: Growth inhibition of human KM12 cells incubated for 48 hrs by sulforhodamine B assay; details: KM12, 48 h; for CC50: read-out: LC50 (the source's name)
SR = test: Growth inhibition of human SR cells incubated for 48 hrs by sulforhodamine B assay; details: for CC50: read-out: LC50 (the source's name)
COLO 205 = test: Growth inhibition of human COLO205 cells incubated for 48 hrs by sulforhodamine B assay; details: COLO 205, 48 h; for CC50: read-out: LC50 (the source's name)
EKVX [8] = test: Growth inhibition of human EKVX cells incubated for 48 hrs by sulforhodamine B assay

## COc1cc2cc(Sc3ccc(NC(=O)Nc4ccc(Cl)c(Cl)c4)cc3)c(C)nc2cc1OC
SF-295
  growth at 10 µM: 56.5%
SW-620
  growth at 10 µM: 89.9%
UO-31
  growth at 10 µM: 62.8%
NCI-H522
  growth at 10 µM: 66%
UACC-62 [1]
  growth at 10 µM: 69.5%
CCRF-CEM
  growth at 10 µM: 50.7%
LOX IMVI
  growth at 10 µM: 94.7%
M14
  growth at 10 µM: 81.3%
MDA-MB-468
  growth at 10 µM: 55.1%
KM12 [2]
  growth at 10 µM: 74.5%
HOP-62
  growth at 10 µM: 92.6%
PC-3
  growth at 10 µM: 56.1%
A498
  growth at 10 µM: 73%
RPMI-8226
  growth at 10 µM: 54.5%
MDA-MB-231
  growth at 10 µM: 87.9%
SK-MEL-5
  growth at 10 µM: 71%
IGROV-1
  growth at 10 µM: 75.3%
K562
  growth at 10 µM: 52.5%
Malme-3M
  growth at 10 µM: 89.9%
SNB-19
  growth at 10 µM: 84.9%
ACHN
  growth at 10 µM: 72.6%
EKVX [3]
  growth at 10 µM: 69.4%
NCI-H226
  growth at 10 µM: 90.9%
RXF 393 [4]
  growth at 10 µM: 84.4%
HT-29
  growth at 10 µM: 91.9%

## COc1cc2cc(Oc3ccc(NC(=O)Nc4cc(C(F)(F)F)cc(C(F)(F)F)c4)cc3)c(C)nc2cc1OC
SF-295
  growth at 10 µM: -59.2%
SW-620
  growth at 10 µM: 15.9%
UO-31
  growth at 10 µM: 11.6%
NCI-H522
  growth at 10 µM: -33.4%
UACC-62 [1]
  growth at 10 µM: -34.6%
UACC-62 [5]
  GI50: 0.56 µM
  TGI: 2.09 µM
  CC50: 6.03 µM
CCRF-CEM
  growth at 10 µM: 0.19%
LOX IMVI
  growth at 10 µM: 1.98%
M14
  growth at 10 µM: 9.04%
MDA-MB-468
  growth at 10 µM: -8.12%
KM12 [2]
  growth at 10 µM: 5.61%
MCF7
  GI50: 0.54 µM
  TGI: 2.36 µM
  CC50: 5.75 µM
HOP-62
  growth at 10 µM: -54.1%
NCI-H322M
  GI50: 1.16 µM
  TGI: 2.57 µM
  CC50: 5.7 µM
PC-3
  growth at 10 µM: 6.82%
A498
  growth at 10 µM: -11.5%
RPMI-8226
  growth at 10 µM: 1.15%
MDA-MB-231
  growth at 10 µM: -36.1%
SK-MEL-5
  growth at 10 µM: -58.5%
RXF 393 [6]
  GI50: 2.06 µM
  TGI: 4.78 µM
  CC50: 5.94 µM
IGROV-1
  growth at 10 µM: 19.9%
Malme-3M
  growth at 10 µM: -3.13%
KM12 [7]
  GI50: 0.918 to 0.92 µM
  TGI: 2.46 µM
  CC50: 6.27 µM
SNB-19
  growth at 10 µM: 15.5%
SR
  GI50: 1.62 µM
  TGI: 5.97 µM
  CC50: > 100 µM
ACHN
  growth at 10 µM: 5.82%
COLO 205
  GI50: 1.79 µM
  TGI: 3.58 µM
  CC50: 7.18 µM
EKVX [3]
  growth at 10 µM: 2.88%
NCI-H226
  growth at 10 µM: -10.2%
RXF 393 [4]
  growth at 10 µM: -24.5%
EKVX [8]
  GI50: 1 µM
  LC50 (concentration killing 50% of cells): 8.88 µM
  TGI: 2.98 µM
HT-29
  growth at 10 µM: 4.89%

## Cc1nc2cc(O)c(O)cc2cc1Oc1ccc(NC(=O)Nc2ccc(Cl)c(Cl)c2)cc1
SF-295
  growth at 10 µM: 95.9%
SW-620
  growth at 10 µM: 49.3%
UO-31
  growth at 10 µM: 58.6%
NCI-H522
  growth at 10 µM: 1.87%
UACC-62 [1]
  growth at 10 µM: 84.5%
UACC-62 [5]
  GI50: 5.67 µM
  TGI: 11.2 µM
  CC50: 22.1 µM
CCRF-CEM
  growth at 10 µM: 19.9%
LOX IMVI
  growth at 10 µM: 0.46%
M14
  growth at 10 µM: 80.8%
KM12 [2]
  growth at 10 µM: 74.7%
MCF7
  GI50: 8.7 µM
  TGI: > 32.5 µM
  CC50: > 32.5 µM
HOP-62
  growth at 10 µM: 35.7%
NCI-H322M
  GI50: 14.1 µM
  TGI: > 32.5 µM
  CC50: > 32.5 µM
PC-3
  growth at 10 µM: 39.3%
A498
  growth at 10 µM: 118%
RPMI-8226
  growth at 10 µM: 75.7%
MDA-MB-231
  growth at 10 µM: 45%
SK-MEL-5
  growth at 10 µM: -42.2%
RXF 393 [6]
  GI50: 9.24 µM
  TGI: > 32.5 µM
  CC50: > 32.5 µM
IGROV-1
  growth at 10 µM: 67.1%
K562
  growth at 10 µM: 53.9%
Malme-3M
  growth at 10 µM: 85.2%
KM12 [7]
  GI50: 9.64 µM
  TGI: 32 µM
  CC50: > 32.5 µM
SNB-19
  growth at 10 µM: 49%
SR
  GI50: 1.56 µM
  TGI: 12.3 µM
  CC50: > 32.5 µM
ACHN
  growth at 10 µM: 39%
COLO 205
  GI50: 10.3 µM
  TGI: > 32.5 µM
  CC50: > 32.5 µM
EKVX [3]
  growth at 10 µM: 98.5%
NCI-H226
  growth at 10 µM: 38.3%
RXF 393 [4]
  growth at 10 µM: 20.4%
HT-29
  growth at 10 µM: 48%
